How the values were obtained:
platelets [1] = assay: Platelets aggregation inhibitory activity (method of Born et al.), ADP-induced, human PRP (Pharmacological Test I); type: cell-based, man; details: 7.5 μM ADP, 37° C., read-out: IC50 ADP (50% platelets aggregation inhibition)
Procedure: (§1) The platelets aggregation inhibitory activity of each test compound was measured by the method of Born et al. [J. Physiol., London, 162, 67 (1962)], using Platelets Aggregation Tracer manufactured by Nikoh Bioscience Co., Ltd.
(§2) 9 volumes of a blood collected from person was mixed with 1 volume of a 3.8% aqueous sodium citrate solution. Part of the mixture was subjected to centrifugation at 1,100 rpm for 10 minutes to obtain a platelet rich plasma (PRP). The remainder of the mixture was also subjected to centrifugation at 3,000 rpm for 10 minutes to obtain a platelet poor plasma (PPP).
(§3) The number of platelets in the PRP was measured using Coulter Counter manufactured by Coulter Electronics Inc. Then, the PRP was diluted with the PPP so that the number of platelets in the dilution became 300,000, whereby a PRP solution was prepared.
(§4) 200 μl of this PRP solution and 2 ml of a solution containing a test compound at a given concentration were placed in an aggregation measurement cell and heated at 37° C. for 1 minute. Thereto was added 20 μl of adenosine diphosphate (ADP manufactured by Sigma Co.) or a collagen suspension (Collagen Reagent manufactured by Horm, Hormon-Chemie, Gmbh) to induce aggregation of platelets. The resulting mixture in the cell was measured for change of transmittance, after which a platelets aggregation curve was prepared. Incidentaly, the concentration of ADP or collagen was selected so that the final Concentration became 7.5 μM or 20 μg/ml.
(§5) Using the platelets aggregation curve, there was calculated a maximum aggregation rate (MAR) of platelets using the followoing formula: […]
(§6) wherein a represents a transmittance of the PRP obtained in the same manner; c represents a transmittance of the PPP obtained in the same manner; and b represents a transmittance at the maximum change, of the PRP solution containng the test compound and the aggregation inducer.
(§7) A MAR was also calculated as above, for the control containing no test compound.
(§8) Using the above two MARs, there were calculated platelets aggregation inhibitions (%) of each test compound at various concentrations using the following formula.
(§9) Inhibition=[1-(MAR of PRP solution containing test compound)/(MAR of PRP
(§10) solution containing no test compound)]×100
(§11) Using the above obtained platelets aggregation inhibitions (%) of each test compound at various concentrations, there was calculated a concentration (IC50) of each test compound for 50% platelets aggregation inhibition.

platelets [2] = assay: Platelets aggregation inhibitory activity (method of Born et al.), collagen-induced, human PRP (Pharmacological Test I); type: cell-based, man; details: Homo sapiens, Platelet, 20 μg/ml collagen, 37° C., read-out: IC50 Collagen (50% platelets aggregation inhibition)
Procedure: as §1, §2, §3, §4, §5, §6, §7, §8, §9, §10, §11

| SMILES | IC50 (platelets [1]; Homo sapiens, Platelet) [µM] | IC50 (platelets [2]) [µM] | IC50 (platelets [1]) [µM] |
| --- | --- | --- | --- |
| O=c1ccc2cc(OCCCCS(=O)(=O)N(CCN3CCCS3(=O)=O)Cc3ccccc3)ccc2[nH]1 [Example 105] | 2.2 | 1.1 |  |
| O=c1ccc2cc(OCCCCN(CCN3CCOCC3)CC3CCCCCCC3)ccc2[nH]1 [Example 45] | 22 | 25 |  |
| O=c1ccc2cc(OCCCS(=O)(=O)N(CCN3CCC(O)CC3)CC3CCCCC3)ccc2[nH]1 [Example 82] | 4.5 | 3.8 |  |
| CN(C(=O)NCCCOc1ccc2[nH]c(=O)ccc2c1)C1CCCCC1 [Example 133] | 2.9 |  |  |
| O=c1ccc2cc(OCCCCCN(CCO)Cc3ccccc3)ccc2[nH]1 [Example 67] | 4.5 | 2.9 |  |
| Cc1ccc(CN(CCCCCOc2ccc3[nH]c(=O)ccc3c2)CCN2CCC(O)CC2)cc1 [Example 32] | 4.8 | 6.1 |  |
| O=c1ccc2cc(OCCCCN(Cc3ccccc3)S(=O)(=O)CCCn3ccnc3)ccc2[nH]1 [Example 122] | 22 | 29 |  |
| N#Cc1ccc(CN(CCCCCOc2ccc3[nH]c(=O)ccc3c2)CCN2CCC(O)CC2)cc1 [Example 33] | 5.6 | 9.1 |  |
| O=c1ccc2cc(OCCCCS(=O)(=O)N(CCN3CCC(O)CC3)Cc3ccc(Cl)c(Cl)c3)ccc2[nH]1 [Example 95] | 10 | 7.1 |  |
| O=c1ccc2cc(OCCCCS(=O)(=O)N(CCN3CCC(O)CC3)C3CCCCCCC3)ccc2[nH]1 [Example 88] | 2.8 | 1.4 |  |
| CN(C)C1CCN(CCN(CC2CCCCCCC2)S(=O)(=O)CCCOc2ccc3[nH]c(=O)ccc3c2)CC1 [Example 100] | 13 | 6.5 |  |
| CCN(CC)C(=O)CN(CCCCOc1ccc2[nH]c(=O)ccc2c1)CC1CCCCCCC1 [Example 65] | 11 | 14 |  |
| O=c1ccc2cc(OCCCS(=O)(=O)N(CCN3CCN(CCO)CC3)CC3CCCCCCC3)ccc2[nH]1 [Example 99] | 2.9 | 3.5 |  |
| CCN(CC)CC(CO)N(CC1CCCCCCC1)S(=O)(=O)CCCCOc1ccc2[nH]c(=O)ccc2c1 (stereo not shown) [Example 107] | 3.4 | 3.2 |  |
| O=C(CN1CCC(O)CC1)N(CCCCOc1ccc2[nH]c(=O)ccc2c1)CC1CCCCCCC1 [Example 21] | 4.2 | 3.1 |  |
| O=c1ccc2cc(OCCCCCN(CCN3CCCS3(=O)=O)Cc3ccccc3)ccc2[nH]1 [Example 56] | 14 | 7.7 |  |
| CCN1C[C@H](O)C[C@H]1CN(CCCCOc1ccc2[nH]c(=O)ccc2c1)CC1CCCCCCC1 [Example 71] | 18 | 7.4 |  |
| CN(C)C1CCN(CCN(CCCCOc2ccc3[nH]c(=O)ccc3c2)CC2CCCCCCC2)CC1 [Example 46] | 20 | 20 |  |
| COc1ccc(CN(CCCCCOc2ccc3[nH]c(=O)ccc3c2)CCN2CCC(O)CC2)cc1OC [Example 35] | 11 | 11 |  |
| O=c1ccc2cc(OCCCCCN(CCN3CCN(CCO)CC3)Cc3ccccc3)ccc2[nH]1 [Example 57] | 18 | 17 |  |
| O=c1ccc2cc(OCCCCCN(CCn3ccnc3)Cc3ccccc3)ccc2[nH]1 [Example 69] | 15 | 9.5 |  |
| O=C1CC[C@@H](CO)N1CCN(CCCCCOc1ccc2[nH]c(=O)ccc2c1)Cc1ccccc1 [Example 55] | 3.7 | 2.6 |  |
| CC(=O)NCCN(CC1CCCCCCC1)S(=O)(=O)CCCCOc1ccc2[nH]c(=O)ccc2c1 [Example 112] | 0.83 | 0.69 |  |
| Cc1ccc(CN(CCN2CCC(O)CC2)S(=O)(=O)CCCCOc2ccc3[nH]c(=O)ccc3c2)cc1 [Example 94] | 1.4 | 2.3 |  |

| SMILES | IC50 (platelets [1]; Homo sapiens, Platelet) [µM] | IC50 (platelets [2]) [µM] | IC50 (platelets [1]) [µM] |
| --- | --- | --- | --- |
| CN(C1CCCCC1)S(=O)(=O)CCCCOc1ccc2[nH]c(=O)ccc2c1 [Example 77] | 2.1 | 4.9 |  |
| O=c1ccc2cc(OCCCCS(=O)(=O)N(CCN3CCC[C@H]3CO)CC3CCCCC3)ccc2[nH]1 [Example 104] | 3.5 | 2.3 |  |
| CN(C(=S)CCCOc1ccc2[nH]c(=O)ccc2c1)C1CCCCC1 [Example 135] |  |  | 22 |
| O=C(NCCCOc1ccc2[nH]c(=O)ccc2c1)N(CCN1CCC(O)CC1)CC1CCCCCCC1 [Example 131] | 2.4 | 1.3 |  |
| O=c1ccc2cc(OCCCS(=O)(=O)N(CCN3CCOCC3)CC3CCCCCCC3)ccc2[nH]1 [Example 98] | 9.1 | 12 |  |
| O=c1ccc2cc(OCCCS(=O)(=O)N(CCN3CCC4(CC3)OCCO4)CC3CCCCCCC3)ccc2[nH]1 [Example 101] | 2.9 | 3.2 |  |
| O=C(CN(CC1CCCCCCC1)S(=O)(=O)CCCOc1ccc2[nH]c(=O)ccc2c1)N1CCC(O)CC1 [Example 81] | 6.1 | 11 |  |
| CCN(CC)CCN(CC1CCCCCC1)S(=O)(=O)CCCOc1ccc2[nH]c(=O)ccc2c1 [Example 110] | 4.7 | 8.3 |  |
| CCN1C[C@H](O)C[C@H]1CN(CC1CCCCC1)S(=O)(=O)CCCCOc1ccc2[nH]c(=O)ccc2c1 [Example 106] | 1.4 | 0.9 |  |
| O=c1ccc2cc(OCCCS(=O)(=O)N(CCN3CCC(O)CC3)CC3CCCCO3)ccc2[nH]1 (stereo not shown) [Example 84] | 9.5 | 9.1 |  |
| O=c1ccc2cc(OCCCS(=O)(=O)N(CCN3CCCCC3)CC3CCCCCCC3)ccc2[nH]1 [Example 97] | 14 | 18 |  |
| O=c1ccc2cc(OCCCCN(CCN3CCC(O)CC3)CC3CCCCO3)ccc2[nH]1 (stereo not shown) [Example 24] | 14 | 14 |  |
| O=c1ccc2cc(OCCCCN(CCNCCO)CC3CCCCCCC3)ccc2[nH]1 [Example 60] | 15 | 5.3 |  |
| CCOC(=O)CN(CC1CCCCCCC1)S(=O)(=O)CCCOc1ccc2[nH]c(=O)ccc2c1 [Example 114] | 6.5 | 4 |  |
| O=S(=O)(CCCOc1ccc2[nH]c(=S)ccc2c1)N(CCN1CCC(O)CC1)c1ccccc1 [Example 87] | 4.7 |  |  |
| O=c1ccc2cc(OCCCCN(CCN3CCC[C@H]3CO)CC3CCCCCCC3)ccc2[nH]1 [Example 49] | 6.9 | 22 |  |
| O=c1ccc2cc(OCCCCCN(CCN(CCO)CCO)Cc3ccccc3)ccc2[nH]1 [Example 58] | 3.8 | 4.8 |  |
| O=c1ccc2cc(OCCCS(=O)(=O)N(CCN3C[C@H](O)[C@@H](O)C3)CC3CCCCCCC3)ccc2[nH]1 [Example 102] | 9.5 | 15 |  |
| O=c1ccc2cc(OCCCCCN(CCN3CCC(O)CC3)Cc3cccs3)ccc2[nH]1 [Example 40] | 13 | 10 |  |
| O=C(C1CCCCCCC1)N(CCCCOc1ccc2[nH]c(=O)ccc2c1)CCN1CCC(O)CC1 [Example 41] | 8.7 | 11 |  |
| O=C([C@@H]1C[C@@H](O)CN1CCCCOc1ccc2[nH]c(=O)ccc2c1)N1CCCCC1 [Example 74] | 17 | 20 |  |
| O=c1ccc2cc(OCCCCCN(CCN3CCC(O)CC3)Cc3ccc(Cl)c(Cl)c3)ccc2[nH]1 [Example 36] | 11 | 20 |  |
| O=c1ccc2cc(OCCCCN(CCN3CCC4(CC3)OCCO4)CC3CCCCCCC3)ccc2[nH]1 [Example 47] | 25 | 29 |  |

Reference: patent US5506239A, “Carbostyril derivative and platelets aggregation inhibitory agent” (Otsuka Pharmaceutical Co., Ltd., priority 1991, dated 1996)
